Reference: ChEMBL document CHEMBL1136211, “Design of quinolinedione-based geldanamycin analogues” (2003)

Assays:
Assay type in all cases: functional
Cancer cell lines [1] = experiment: Concentration required to inhibit growth of cells in 60 cancer cell lines
Cancer cell lines [2] = experiment: Concentration required to kill cells
Cancer cell lines [3] = experiment: Concentration required to inhibit total growth of cells in 60 cancer cell lines; conditions: read-out: Log TGI (converted)

For `O=C1C=C(N2CC2)C(=O)c2nc(-c3ccc4ccccc4c3)ccc21`, the GI50 (Cancer cell lines [1]) was 3.47 µM, the LC50 (Cancer cell lines [2]) was 40.7 µM and the TGI (Cancer cell lines [3]) was 10.7 µM.

Work on `O=C1C(N2CC2)=CC(=O)c2nc(-c3ccccc3)ccc21` yielded a GI50 (Cancer cell lines [1]) of 0.0525 µM, an LC50 (Cancer cell lines [2]) of 4.07 µM and a TGI (Cancer cell lines [3]) of 0.513 µM.

Work on `O=C1C=C(N2CC2)C(=O)c2nc(-c3ccccc3)ccc21` yielded a GI50 (Cancer cell lines [1]) of 0.263 µM, an LC50 (Cancer cell lines [2]) of 11.2 µM and a TGI (Cancer cell lines [3]) of 1.78 µM.

In the case of `O=C1/C(=N/CCO)C=C(O)c2nc(-c3ccccc3)ccc21`, the GI50 (Cancer cell lines [1]) is reported as 2.95 µM, the LC50 (Cancer cell lines [2]) is reported as 60.3 µM and the TGI (Cancer cell lines [3]) is reported as 20 µM.

Work on `O=C1C(NCCCl)=CC(=O)c2nc(-c3ccccc3)ccc21` yielded a GI50 (Cancer cell lines [1]) of 0.0275 µM, an LC50 (Cancer cell lines [2]) of 2.04 µM and a TGI (Cancer cell lines [3]) of 0.324 µM.

For `O=C1C(N2CC2)=CC(=O)c2nc(-c3ccccn3)ccc21`, the GI50 (Cancer cell lines [1]) was 0.646 µM, the LC50 (Cancer cell lines [2]) was 9.77 µM and the TGI (Cancer cell lines [3]) was 2.45 µM.

`O=C1C(N2CC2)=CC(=O)c2nc(-c3ccc4ccccc4c3)ccc21` showed a GI50 (Cancer cell lines [1]) of 0.204 µM, an LC50 (Cancer cell lines [2]) of 5.62 µM and a TGI (Cancer cell lines [3]) of 1.07 µM.
